Results published in US20090325960A1, “METHOD FOR TREATING INFLAMMATORY DISEASES USING RHO KINASE INHIBITOR COMPOUNDS” (priority 2008, published 2009).
Where two headings read alike, the source gives them in different places.

Assays:
[1] = test system: cytokine secretion from LPS-stimulated human monocytes; assay: Human monocyte cytokine secretion assay (LPS-stimulated); assay type: cell-based
Description: Peripheral blood from healthy human volunteers was collected and the monocytes isolated via Ficoll-paque density centrifugation. […] The cells were allowed to pre-incubate with test compound at the indicated concentration for 30 minutes (37° C., 5% CO2, humidified air); after which the supernatant was removed and media containing compound and 1 ng/mL LPS was added. Cells were allowed to incubate with compounds and LPS for 4 hours at 37° C. after which the supernatant was removed and stored at −80° C. Cytokine concentrations in the supernatant were determined using commercially available Bio-Rad Bio-Plex™ kits according the manufacturer's instructions.

[2] = Rat oral pharmacokinetics (plasma); assay type: in vivo; conditions: rat oral PK, mean of n = 3 rats; for AUC (0-last): time zero through last observable value
Description: Plasma (EDTA K2 anticoagulant) was collected from male, cannulated, CD Sprague Dawley rats to determine the pharmacokinetics of formulations containing compound inhibitors of Rho kinase. Each animal was dosed orally with a 4 ml/kg solution or suspension of each test compound in 10 mM acetate buffered saline, pH 4.5 at a final concentration range of 20-30 mol/kg. Blood was collected at 0.25, 0.5, 1, 2, 4, 6, 8, and 24 hours. Plasma samples were assayed for the concentration of the test compound using an on-line, solid phase extraction LC/MS/MS analysis system.
Pharmacokinetic analyses were performed using WinNonlin software version 5.2 (Pharsight Corporation, Mountain View, Calif.).
As determined from the plasma concentration versus time curves, the time to peak and peak exposure are represented by the values Tmax and Cmax, respectively. The AUC values (nM*hr) shown were calculated as the areas under the plasma concentration versus time curves from time zero through the time of the last observable value and represent the total exposure of the compound over the course of the study. Half-life values or the amount of time required for the plasma levels of the compound to decline to half the initial value are represented as t1/2.

[3] = test system: ova-sensitized, ova-challenged BALB/c mice; assay: Prevention of airway hyperreactivity (Penh, methacholine) in mouse ovalbumin sensitization model; assay type: in vivo; conditions: days 27 to 31; for airway hyperreactivity: intratracheal once a day
Description: The anti-inflammatory dosing paradigm consists of dosing the animals once a day starting on day 27 and finishing on either day 30 or 31 (1 hr prior to the aerosolized ovalbumin challenges on days 28 to 30) but not on day 32 when hyperreactivity evaluation occurs. […] Exposure to the methacholine doses consisted of a 3 minute period during which a nebulizer was aerosolizing the methacholine and an additional 3 minute period following the cessation of nebulization. […] Enhanced pause (Penh), a unitless index of airway hyperreactivity, is derived from the expiratory side of the respiratory waveform measured via the plethysmograph and is used as an indirect measure of airway resistance and hyperreactivity. […] Following the methacholine dose response, BALF was collected and all animals were anesthetized, bled and euthanized. […] The Penh value at each of the dose levels of methacholine represents the 6-minute average response. Change from baseline (CFB) in Penh was calculated at each methacholine dose and the area under the curve (AUC) for these CFB values was calculated using the trapezoidal rule. This same approach was applied for each mouse across multiple experiments. […] Data from equal experimental conditions across experiments performed on different days were pooled for statistical analysis and data reporting. […] A random intercept for each experiment was assumed to account for possible similarities of the results obtained from a given experiment (i.e., as a “blocking effect”). […] For FIG. 11, linear AUC values from compound treated mice were reported as a percent of linear AUC values from vehicle-treated ovalbumin-sensitized/ovalbumin-challenged (asthmatic) mice.

[4] = test system: ova-sensitized, ova-challenged BALB/c mice; assay: In vivo anti-inflammatory activity, mouse ovalbumin sensitization model (BALF cells and cytokines); conditions: dosed orally to day 31, anti-inflammatory dosing paradigm
Description: Upon arrival, the animals were randomized into groups of five males per cage and assigned to a dosing group. Animals were quarantined for 7 days under test conditions. […] Animals were sensitized on day 0 and 14 of study by an intraperitoneal injection with 20 μg of ovalbumin (ova) and 2.0 mg aluminum hydroxide (alum) which initiates the development of a specific T-helper (Th) cells type 2 resulting in asthmatic animals (denoted as Ova in the fugures). One group of animals received an injection of saline to use as control animals (denoted as normal in the figures). […] Aerosol challenge consists of using an Aerogen Aeroneb nebulizer and controller with a particle size of 4-6 μm mass median aerodynamic diameter (MMAD) with a distribution of 400 μl per minute. This aerosol challenge is necessary to target the Th2-driven allergic inflammation in the lower airways.
The anti-inflammatory dosing paradigm (FIG. 5) was utilized to evaluate the anti-inflammatory effects of experimental compounds. […] On day 32 of the experiment, after measurement of airway hyperreactivity, BALF was collected and all animals were anesthetized, bled and euthanized.
Bronchoalveolar lavage fluid (BALF) was collected by infusing 3.0 ml of saline with 10% fetal calf serum into the lungs via the trachea and then withdrawing the fluid. The total amount of cells/ml of BALF fluid was determined via manual cell count on hemocytometer. The BALF was centrifuged, supernatant removed and analyzed for cytokine concentrations as described below, and cell pellet reconstituted in 500 μL of fluid. Cytospin slides were prepared from the cell pellet using 100 μL of fluid and spinning samples for 5 minutes at 5000 rpms in a cytospin centrifuge, Following Hema3 stain, relative percentages of individual leukocytes were determined on a 200 cell count for each sample. The final concentration of individual leukocyte cell types per ml of BALF was determined by multiplication of the relative percentage of individual leukocytes with the total amount of cells/ml of BALF fluid.
The concentrations of cytokines in the BALF samples were determined using commercially available Bio-plex kits (Bio-Rad) for the detection of mouse IL-5, IL-13, and Eotaxin. The analysis of cytokine levels was measured using the Bio-Plex 200 (Bio-Rad) system according to the manufacturer's instructions.

[5] = biological target: T1, Mnk2 (Homo sapiens, UniProt Q9HBH9); assay type: biochemical
T1 construct: purchased Upstate, Millipore Bioscience Division (KinaseProfiler service)
Description: (§1) Compounds of Formulae I and II were examined for activity against a selected panel of kinases using the KinaseProfiler™ enzyme profiling services (Upstate, Millipore Bioscience Division). Percent kinase activity at 10 μM and 1 μM test compound and 10 μM ATP was determined against 40 wild-type recombinant human kinases according to Upstate's standard protocol: ASK1, BTK, CSK, c-RAF, GCK, GSK3β, IKKα, IKKβ, IRAK1, IRAK4, JNK1α1, JNK2α2, JNK3, ERK1, ERK2, MAPKAP-K2, MAPKAP-K3, MEK1, MKK4, MKK6, MKK7β, Mnk2, MSK1, PAK3, PDK1, PRAK, ROCK1, Rsk2, SAPK2a, SAPK2b, SAPK3, SAPK4, SRPK1, SRPK2, Syk, TAK1, TBK1, PI3-Kβ, PI3-Kγ, PI3-Kδ.

[6] = test system: A-10 rat thoracic aorta cells; assay: PDGF-stimulated smooth muscle cell proliferation assay (BrdU incorporation); assay type: cell-based
Description: Effects on cell proliferation were measured using a bromodeoxyuridine (BrdU) incorporation assay. […] Serum free media containing 0.1% BSA was added to the cells. 24 hours later the media was removed and replaced with warmed serum free media. […] Proliferation was then monitored using the BrdU Cell Proiferation Assay, HTS (Calbiochem cat. # HTS01). BrdU was allowed to incorporate into cells for 24 hours prior to the addition of fixative/denaturing solution and the fluorometric detection of incorporated BrdU using a BrdU antibody as per manufacturer's directions. Data are reported as a percent of the PDGF-stimulated BrdU incorporation.

[7] = biological target: T2, ERK1 (Homo sapiens, UniProt P27361); assay: Kinase panel screen (KinaseProfiler), ERK1; assay type: biochemical; conditions: 1 μM test compound, 10 μM ATP
T2 construct: purchased Upstate, Millipore Bioscience Division (KinaseProfiler service)
Description: as §1

[8] = biological target: T3, ERK2 (Homo sapiens, UniProt P28482); assay: Kinase panel screen (KinaseProfiler), ERK2; assay type: biochemical; conditions: 1 μM test compound, 10 μM ATP; read-out: Percent inhibition ERK2 at 1 μM
T3 construct: purchased Upstate, Millipore Bioscience Division (KinaseProfiler service)
Description: as §1

[9] = test system: monocytes, endothelial cells, and lymphocytes; conditions: cited from earlier work
[10] = 10 μM of test compound, 1 ng/mL LPS, 4 hours, read-out: IL-1β % (Percent inhibition values for inhibition of cytokine secretion)
[11] = 10 μM of test compound, 1 ng/mL LPS, 4 hours, read-out: TNF-α % (Percent inhibition values for inhibition of cytokine secretion)
[12] = read-out: IL-6 % (Percent inhibition values for inhibition of cytokine secretion), 10 μM of test compound, 1 ng/mL LPS, 4 hours

T1 sequence (Q9HBH9 whole entry): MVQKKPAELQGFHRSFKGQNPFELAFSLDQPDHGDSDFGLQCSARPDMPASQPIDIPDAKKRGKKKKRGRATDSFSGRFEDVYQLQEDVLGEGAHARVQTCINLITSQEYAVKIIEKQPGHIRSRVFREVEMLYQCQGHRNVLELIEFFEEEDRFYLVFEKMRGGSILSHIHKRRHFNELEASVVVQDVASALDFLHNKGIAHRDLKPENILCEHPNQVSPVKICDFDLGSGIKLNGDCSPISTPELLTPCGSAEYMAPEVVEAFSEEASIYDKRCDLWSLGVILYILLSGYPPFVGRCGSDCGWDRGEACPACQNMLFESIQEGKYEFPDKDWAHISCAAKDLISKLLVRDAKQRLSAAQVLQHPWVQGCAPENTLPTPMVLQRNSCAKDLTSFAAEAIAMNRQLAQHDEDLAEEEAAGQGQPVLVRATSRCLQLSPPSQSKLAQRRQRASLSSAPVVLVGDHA
T3 sequence (P28482 whole entry): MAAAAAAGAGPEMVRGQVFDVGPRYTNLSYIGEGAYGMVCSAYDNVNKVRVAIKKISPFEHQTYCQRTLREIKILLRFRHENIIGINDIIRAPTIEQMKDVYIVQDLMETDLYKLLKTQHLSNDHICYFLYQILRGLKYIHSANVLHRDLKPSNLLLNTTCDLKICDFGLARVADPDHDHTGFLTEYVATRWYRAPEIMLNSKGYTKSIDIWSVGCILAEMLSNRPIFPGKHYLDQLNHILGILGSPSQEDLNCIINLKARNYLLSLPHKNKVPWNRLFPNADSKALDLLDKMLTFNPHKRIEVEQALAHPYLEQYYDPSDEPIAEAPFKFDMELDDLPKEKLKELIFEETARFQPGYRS
T2 sequence (P27361 whole entry): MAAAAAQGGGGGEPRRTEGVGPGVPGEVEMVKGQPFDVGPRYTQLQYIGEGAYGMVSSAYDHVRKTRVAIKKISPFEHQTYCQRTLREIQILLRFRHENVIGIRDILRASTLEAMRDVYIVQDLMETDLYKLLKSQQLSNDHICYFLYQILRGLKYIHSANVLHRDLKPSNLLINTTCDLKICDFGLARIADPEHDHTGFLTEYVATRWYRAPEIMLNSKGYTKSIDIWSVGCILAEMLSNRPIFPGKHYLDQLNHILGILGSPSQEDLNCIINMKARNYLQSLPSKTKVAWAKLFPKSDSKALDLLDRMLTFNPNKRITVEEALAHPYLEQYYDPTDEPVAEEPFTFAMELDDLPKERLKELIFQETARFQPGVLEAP

Structure (SMILES)	activity at 10 µM [1, 10] [%]	activity at 10 µM [1, 11] [%]	activity at 10 µM [1, 12] [%]	further results
Fc1ccc(CN2CCC[C@H](Nc3ccc4[nH]ncc4c3)C2)cc1F [Compound 1.072, (S)-N-(1-(3,4-difluorobenzyl)piperidin-3-yl)-1H-indazol-5-amine]	98.2	83.8	96.1	
CSc1ccc(CN2CCC[C@@H](Nc3ccc4[nH]ncc4c3)C2)cc1 [Compound 1.074, (R)-N-(1-(4-(methylthio)benzyl)piperidin-3-yl)-1H-indazol-5-amine]			96	
Cc1ccc(CN2CCC[C@H](Nc3ccc4[nH]ncc4c3)C2)cc1 [Compound 1.078, (S)-N-(1-(4-methylbenzyl)piperidin-3-yl)-1H-indazol-5-amine]	60.4	88.1	111	
OCCOc1cccc(CN2CCC[C@@H](Nc3ccc4[nH]ncc4c3)C2)c1 [Compound 1.092, (R)-2-(3-((3-(1H-indazol-5-ylamino)piperidin-1-yl)methyl)phenoxy)ethanol]				Vz_F [2]: 19.0 L/kg
c1ccc(CN2CCC[C@@H](Nc3ccc4[nH]ncc4c3)C2)cc1 [Compound 1.110, (R)-N-(1-benzylpiperidin-3-yl)-1H-indazol-5-amine]	134	119	112	
O=C(COc1cccc(CN2CCC[C@@H](Nc3ccc4[nH]ncc4c3)C2)c1)N1CCOCC1 [Compound 1.127, (R)-2-(3-((3-(1H-indazol-5-ylamino)piperidin-1-yl)methyl)phenoxy)-l-morpholinoethanone]	198	97.3	67.3	
c1cc2cc(CN3CCC[C@@H](Nc4ccc5[nH]ncc5c4)C3)ccc2o1 [Compound 1.131, (R)-N-(1-(benzofuran-5-ylmethyl)piperidin-3-yl)-1H-indazol-5-amine]				airway hyperreactivity to metacholine on Day 32 ([3]; oral 15 μMol/kg once a day): prevention of airway hyperreactivity; airway eosinophil infiltration (eosinophils per ml of BALF) [4]: reduced; Vz_F [2]: 6.8 L/kg
CCc1ccc(CN2CCC[C@@H](Nc3ccc4[nH]ncc4c3)C2)cc1 [Compound 1.136, (R)-N-(1-(4-ethylbenzyl)piperidin-3-yl)-1H-indazol-5-amine]				Cmax [2]: BLQ; Tmax [2]: BLQ; Vz_F [2]: BLQ; t½ [2]: BLQ; AUC (0-last) [2]: BLQ
Brc1ccc(CN2CCC[C@H](Nc3ccc4[nH]ncc4c3)C2)cc1 [Compound 1.142, (S)-N-(1-(4-bromobenzyl)piperidin-3-yl)-1H-indazol-5-amine]	82.8			
c1cc2cc(CN3CCC[C@@H](Nc4ccc5[nH]ncc5c4)C3)ccc2[nH]1 [Compound 1.143, (R)-N-(1-((1H-indol-5-yl)methyl)piperidin-3-yl)-1H-indazol-5-amine]	76.8			
Oc1cccc(CN2CCC[C@@H](Nc3ccc4[nH]ncc4c3)C2)c1 [Compound 1.145, (R)-3-((3-(1H-indazol-5-ylamino)piperidin-1-yl)methyl)phenol]	129			
Fc1ccc(CN2CCC[C@@H](Nc3ccc4[nH]ncc4c3)C2)cc1 [Compound 1.146, (R)-N-(1-(4-fluorobenzyl)piperidin-3-yl)-1H-indazol-5-amine]		97.7	128	
Cc1ccc(CN2CCC[C@H](Nc3ccc4[nH]ncc4c3)C2)cc1O [Compound 1.151, (S)-5-((3-(1H-indazol-5-ylamino)piperidin-1-yl)methyl)-2-methylphenol]			114	
Cc1ccc(CN2CCC[C@@H](Nc3ccc4[nH]ncc4c3)C2)cc1OCCO [Compound 1.161, (R)-2-(5-((3-(1H-indazol-5-ylamino)piperidin-1-yl)methyl)-2-methylphenoxy)ethanol]				airway hyperreactivity [3]: prevention of airway hyperreactivity; Percent inhibition Mnk2 at 1 μM [5]: 108; Proliferation at 1 μM ([6]; average percent of PDGF stimulated proliferation at 1 μM test compound): 50.0%
NC(=O)Cn1ccc2cc(CN3CCC[C@@H](Nc4ccc5[nH]ncc5c4)C3)ccc21 [Compound 1.162, (R)-2-(5-((3-(1H-indazol-5-ylamino)piperidin-1-yl)methyl)-1H-indol-1-yl)acetamide]				Percent inhibition Mnk2 at 1 μM [5]: 111
Clc1cccc(CN2CCC[C@H](Nc3ccc4[nH]ncc4c3)C2)c1 [Compound 1.170, (S)-N-(1-(3-chlorobenzyl)piperidin-3-yl)-1H-indazol-5-amine]	80.6	67.8	72.7	
C=Cc1ccc(CN2CCC[C@@H](Nc3ccc4[nH]ncc4c3)C2)cc1 [Compound 1.208, (R)-N-(1-(4-vinylbenzyl)piperidin-3-yl)-1H-indazol-5-amine]	62	92	109	
COc1ccc(CN2CCC[C@@H](Nc3ccc4[nH]ncc4c3)C2)cc1 [Compound 1.226, (R)-N-(1-(4-methoxybenzyl)piperidin-3-yl)-1H-indazol-5-amine]	99.3	66.6		
c1ccc(CN2CCC[C@H](Nc3ccc4[nH]ncc4c3)C2)cc1 [Compound 1.227, (S)-N-(1-benzylpiperidin-3-yl)-1H-indazol-5-amine]	69.4	79.3	66.7	
C=Cc1ccc(CN2CCC[C@H](Nc3ccc4[nH]ncc4c3)C2)cc1 [Compound 1.229, (S)-N-(1-(4-vinylbenzyl)piperidin-3-yl)-1H-indazol-5-amine]	44.9	50.7	63.2	
c1cc2c(cc1CN1CCC[C@@H](Nc3ccc4[nH]ncc4c3)C1)CCO2 [Compound 1.246, (R)-N-(1-((2,3-dihydrobenzofuran-5-yl)methyl)piperidin-3-yl)-1H-indazol-5-amine]	103	79	108	
CSc1ccc(CN2CC[C@@H](Nc3cccc4cnccc34)C2)cc1 [Compound 2.026, (R)-N-(1-(4-(methylthio)benzyl)pyrrolidin-3-yl)isoquinolin-5-amine]				Cmax [2]: BLQ; Tmax [2]: BLQ; Vz_F [2]: BLQ; t½ [2]: BLQ; AUC (0-last) [2]: BLQ; Percent of PDGF Induced Proliferation at 10 μM Avg ([6]; 10 μM, 10 ng/mL PDGF): 52.0%; Proliferation at 10 μM ([6]; average percent of PDGF stimulated proliferation at 10 μM test compound): 52.0%
NC(=O)Cn1ccc2ccc(CN3CC[C@@H](Nc4cccc5cnccc45)C3)cc21 [Compound 2.058, (R)-2-(6-((3-(isoquinolin-5-ylamino)pyrrolidin-1-yl)methyl)-1H-indol-1-yl)acetamide]			1.3	
OCCn1ccc2cc(CN3CC[C@@H](Nc4cccc5cnccc45)C3)ccc21 [Compound 2.066, (R)-2-(5-((3-(isoquinolin-5-ylamino)pyrrolidin-1-yl)methyl)-1H-indol-1-yl)ethanol]				airway hyperreactivity [3]: prevention of airway hyperreactivity; Percent inhibition Mnk2 at 1 μM [5]: 99; Percent inhibition at 1 µM [7]: ~50%; activity at 1 µM [8]: ~50%
C[C@@H](N)[C@H]1CC[C@H](C(=O)Nc2ccncc2)CC1 [Compound Y-27632]				expression of IL-1β, TNFα, and various other cytokines [9]: suppress expression
